Laboratory results from article PMC6691788, “Design and synthesis of phthalazine-based compounds as potent anticancer agents with potential antiangiogenic activity via VEGFR-2 inhibition” (Journal of Enzyme Inhibition and Medicinal Chemistry, 2019).

Experiments:
SK-MEL-28 = assay: NCI 60 cell panel SRB screen; format: cell-based; settings: Homo sapiens
NCI-H226 = assay: NCI 60 cell panel SRB screen; format: cell-based; settings: Homo sapiens
SR = assay: NCI 60 cell panel SRB screen; format: cell-based; settings: Homo sapiens
VEGFR-2 tyrosine kinase = biological target: T1, VEGFR-2 tyrosine kinase (Homo sapiens, UniProt P35968); assay: In vitro VEGFR-2 tyrosine kinase assay (BPS Bioscience); format: biochemical; settings: read-out: VEGFR-2 % inhibition; 10 μM concentration
T1 construct: purchased BPS Bioscience 40301
How it was run: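 For IC50, ADP formation after a 30-min 30 °C reaction was detected by ADP-Glo luminescence in duplicate, blank-subtracted and fitted as log inhibitor versus normalised response. The 10 µM single-dose test instead measured remaining ATP (Kinase-Glo Plus) after 40 min at 30 °C with poly(Glu,Tyr) substrate, 10 μM ATP, pH 7.4, 1% DMSO.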

NCI-H522 = assay: NCI 60 cell panel SRB screen; format: cell-based; settings: Homo sapiens
SW-620 = assay: NCI 60 cell panel SRB screen; format: cell-based; settings: Homo sapiens
CCRF-CEM = assay: NCI 60 cell panel SRB screen; format: cell-based, human; settings: Homo sapiens
SNB-75 = assay: NCI 60 cell panel SRB screen; format: cell-based; settings: Homo sapiens
LOX IMVI = assay: NCI 60 cell panel SRB screen; format: cell-based; settings: Homo sapiens
NCI-H23 = assay: NCI 60 cell panel SRB screen; format: cell-based; settings: Homo sapiens
OVCAR-4 = assay: NCI 60 cell panel SRB screen; format: cell-based; settings: Homo sapiens
NCI-H322M = assay: NCI 60 cell panel SRB screen; format: cell-based; settings: Homo sapiens
OVCAR-5 = assay: NCI 60 cell panel SRB screen; format: cell-based; settings: Homo sapiens
COLO 205 = assay: NCI 60 cell panel SRB screen; format: cell-based; settings: Homo sapiens
BT-549 = assay: NCI 60 cell panel SRB screen; format: cell-based; settings: Homo sapiens
786-0 = assay: NCI 60 cell panel SRB screen; format: cell-based; settings: Homo sapiens; 786-0, 5 log dose
K-562 = assay: NCI 60 cell panel SRB screen; format: cell-based; settings: Homo sapiens, K562
MALME-3M = assay: NCI 60 cell panel SRB screen; format: cell-based; settings: Homo sapiens
T-47D = assay: NCI 60 cell panel SRB screen; format: cell-based; settings: Homo sapiens, T47D
RPMI-8226 = assay: NCI 60 cell panel SRB screen; format: cell-based; settings: Homo sapiens
[1] = 5 log dose, 48 h, read-out: LC50 (the source's name)
[2] = single dose 10 μM, read-out: percent cell growth promotion
[3] = read-out: percent cell growth promotion

T1 sequence (P35968 20-1356): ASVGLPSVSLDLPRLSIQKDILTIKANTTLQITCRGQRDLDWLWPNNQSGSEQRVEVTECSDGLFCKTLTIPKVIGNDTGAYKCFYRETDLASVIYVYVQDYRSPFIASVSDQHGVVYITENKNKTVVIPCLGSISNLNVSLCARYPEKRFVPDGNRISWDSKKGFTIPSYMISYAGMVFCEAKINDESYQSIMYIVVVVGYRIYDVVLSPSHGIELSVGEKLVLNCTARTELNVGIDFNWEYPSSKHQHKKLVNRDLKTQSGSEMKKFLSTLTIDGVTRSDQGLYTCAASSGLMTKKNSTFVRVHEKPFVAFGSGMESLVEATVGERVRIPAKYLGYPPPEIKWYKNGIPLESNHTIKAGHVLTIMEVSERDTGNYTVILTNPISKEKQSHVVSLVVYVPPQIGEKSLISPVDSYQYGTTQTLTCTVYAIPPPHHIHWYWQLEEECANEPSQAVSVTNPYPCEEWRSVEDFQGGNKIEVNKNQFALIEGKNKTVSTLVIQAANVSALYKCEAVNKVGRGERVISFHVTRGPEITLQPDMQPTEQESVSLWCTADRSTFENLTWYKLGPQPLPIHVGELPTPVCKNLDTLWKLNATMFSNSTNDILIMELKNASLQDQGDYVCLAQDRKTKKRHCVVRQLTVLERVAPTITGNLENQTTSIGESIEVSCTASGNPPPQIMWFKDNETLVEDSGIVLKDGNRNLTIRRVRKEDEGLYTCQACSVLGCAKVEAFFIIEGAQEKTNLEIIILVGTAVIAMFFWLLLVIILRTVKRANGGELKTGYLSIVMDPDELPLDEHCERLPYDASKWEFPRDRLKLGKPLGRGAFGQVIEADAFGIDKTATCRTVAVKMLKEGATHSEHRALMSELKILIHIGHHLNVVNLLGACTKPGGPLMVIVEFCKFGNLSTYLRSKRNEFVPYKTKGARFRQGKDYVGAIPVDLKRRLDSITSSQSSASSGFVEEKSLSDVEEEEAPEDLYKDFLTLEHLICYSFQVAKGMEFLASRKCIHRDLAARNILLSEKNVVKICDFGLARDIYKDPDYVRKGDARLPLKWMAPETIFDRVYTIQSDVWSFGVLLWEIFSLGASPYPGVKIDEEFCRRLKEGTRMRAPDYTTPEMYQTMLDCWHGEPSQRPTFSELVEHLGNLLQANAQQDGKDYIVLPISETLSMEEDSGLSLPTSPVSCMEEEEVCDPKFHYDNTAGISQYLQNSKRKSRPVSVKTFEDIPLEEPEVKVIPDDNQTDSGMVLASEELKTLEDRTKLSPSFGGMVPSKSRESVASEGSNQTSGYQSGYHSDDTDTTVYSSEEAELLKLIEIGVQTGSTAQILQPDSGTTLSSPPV

## O=C(Nc1ccc(Cl)cc1)Nc1ccc(Oc2nncc3ccccc23)cc1 [Compound 7b, 1–(4-Chlorophenyl)-3–(4-(phthalazin-1-yloxy)phenyl)urea]
SK-MEL-28; SK-MEL-28
  GI50: 0.42 µM
SK-MEL-28; SK-MEL-28, read-out: TGI
  IC (TGI): 1.65 µM
SK-MEL-28; SK-MEL-28, read-out: percent cell growth promotion
  activity at 10 µM: -31.6%
SK-MEL-28; SK-MEL-28, 5 log dose, 48 h, read-out: LC50 (the source's name)
  CC50: 5.33 µM
NCI-H226; NCI-H226, 5 log dose
  GI50: 0.62 µM
  IC (TGI): 5.42 µM
NCI-H226; NCI-H226, 5 log dose, 48 h, read-out: LC50 (the source's name)
  CC50: > 100 µM
NCI-H226; NCI-H226, single dose 10 μM, read-out: percent cell growth promotion
  activity at 10 µM: -54.5%
SR; 5 log dose
  GI50: 0.4 µM
  IC (TGI): > 100 µM
SR; [1]
  CC50: > 100 µM
SR; [2]
  activity at 10 µM: 2.64%
VEGFR-2 tyrosine kinase
  inhibition at 10 µM: 13%
NCI-H522; NCI-H522, 5 log dose
  GI50: 0.19 µM
  IC (TGI): 0.41 µM
NCI-H522; NCI-H522, 5 log dose, 48 h, read-out: LC50 (the source's name)
  CC50: 0.91 µM
NCI-H522; NCI-H522, single dose 10 μM, read-out: percent cell growth promotion
  activity at 10 µM: -46.4%
SW-620; SW-620, 5 log dose
  GI50: 0.34 µM
  IC (TGI): 1.06 µM
SW-620; SW-620, 5 log dose, 48 h, read-out: LC50 (the source's name)
  CC50: 30.3 µM
SW-620; SW-620, single dose 10 μM, read-out: percent cell growth promotion
  activity at 10 µM: -30.1%
CCRF-CEM; 5 log dose
  GI50: 0.32 µM
CCRF-CEM; [1]
  CC50: > 100 µM
CCRF-CEM; [2]
  activity at 10 µM: 8.7%
SNB-75; SNB-75, 5 log dose
  GI50: 0.45 µM
  IC (TGI): 1.95 µM
SNB-75; SNB-75, 5 log dose, 48 h
  LC50 (concentration killing 50% of cells): 5.2 µM
SNB-75; SNB-75, single dose 10 μM, read-out: percent cell growth promotion
  activity at 10 µM: -3.13%
LOX IMVI
  GI50: 0.16 µM
LOX IMVI; [1]
  CC50: 1.63 µM
LOX IMVI; read-out: TGI
  IC (TGI): 0.45 µM
LOX IMVI; [3]
  activity at 10 µM: -77.3%
NCI-H23; NCI-H23, 5 log dose
  GI50: 0.75 µM
  IC (TGI): 2.87 µM
NCI-H23; NCI-H23, 5 log dose, 48 h, read-out: LC50 (the source's name)
  CC50: 9.61 µM
NCI-H23; NCI-H23, single dose 10 μM, read-out: percent cell growth promotion
  activity at 10 µM: 0.5%
OVCAR-4; OVCAR-4, 5 log dose
  GI50: 0.75 µM
  IC (TGI): 3.49 µM
OVCAR-4; OVCAR-4, 5 log dose, 48 h, read-out: LC50 (the source's name)
  CC50: 17 µM
OVCAR-4; OVCAR-4, single dose 10 μM, read-out: percent cell growth promotion
  activity at 10 µM: -20.8%
NCI-H322M; 5 log dose
  GI50: 2.6 µM
  IC (TGI): 9.51 µM
NCI-H322M; [1]
  CC50: 34.9 µM
NCI-H322M; [2]
  activity at 10 µM: 60.9%
OVCAR-5; OVCAR-5, 5 log dose
  GI50: 1.89 µM
  IC (TGI): 4.47 µM
OVCAR-5; OVCAR-5, 5 log dose, 48 h, read-out: LC50 (the source's name)
  CC50: 12.6 µM
OVCAR-5; OVCAR-5, single dose 10 μM, read-out: percent cell growth promotion
  activity at 10 µM: -16%
COLO 205; COLO 205, 5 log dose
  GI50: 1.18 µM
  IC (TGI): 2.92 µM
COLO 205; COLO 205, 5 log dose, 48 h, read-out: LC50 (the source's name)
  CC50: 7.21 µM
COLO 205; COLO 205, single dose 10 μM, read-out: percent cell growth promotion
  activity at 10 µM: 11.9%
BT-549; BT-549
  GI50: 2.08 µM
BT-549; BT-549, read-out: TGI
  IC (TGI): 7.43 µM
BT-549; BT-549, read-out: percent cell growth promotion
  activity at 10 µM: -10.3%
BT-549; BT-549, 5 log dose, 48 h, read-out: LC50 (the source's name)
  CC50: 58.1 µM
786-0
  GI50: 0.87 µM
  IC (TGI): 2.35 µM
K-562; K-562, 5 log dose
  GI50: 0.37 µM
  IC (TGI): > 100 µM
K-562; K-562, 5 log dose, 48 h, read-out: LC50 (the source's name)
  CC50: > 100 µM
K-562; K-562, single dose 10 μM, read-out: percent cell growth promotion
  activity at 10 µM: 5.58%
MALME-3M; Malme-3M
  GI50: 0.44 µM
MALME-3M; Malme-3M, read-out: TGI
  IC (TGI): 2.31 µM
MALME-3M; Malme-3M, read-out: percent cell growth promotion
  activity at 10 µM: 0.78%
MALME-3M; MALME-3M, 5 log dose, 48 h, read-out: LC50 (the source's name)
  CC50: 9.69 µM
T-47D
  GI50: 0.24 µM
T-47D; read-out: TGI
  IC (TGI): 7.68 µM
T-47D; [3]
  activity at 10 µM: 10.2%
T-47D; T-47D, 5 log dose, 48 h, read-out: LC50 (the source's name)
  CC50: > 100 µM
RPMI-8226; RPMI-8226, 5 log dose
  GI50: 0.48 µM
  IC (TGI): 4.58 µM
RPMI-8226; RPMI-8226, 5 log dose, 48 h, read-out: LC50 (the source's name)
  CC50: > 100 µM
RPMI-8226; RPMI-8226, single dose 10 μM, read-out: percent cell growth promotion
  activity at 10 µM: -0.08%
